# In article PMC8607422, “Development of a novel TLR8 agonist for cancer immunotherapy” (Molecular Biomedicine, 2020):
# Where two headings read alike, the source gives them in different places.
# Experiments:
# Format in all cases: cell-based
# hTLR7 = biological target: T1, hTLR7 (Homo sapiens, UniProt Q9NYK1); assay: HEK-Blue hTLR7 SEAP reporter agonist assay; details: HEK-Blue hTLR7 cells, highest concentration 50 μM
# T1 construct: host or cells: HEK-Blue hTLR7
# T1 sequence (Q9NYK1 27-1049): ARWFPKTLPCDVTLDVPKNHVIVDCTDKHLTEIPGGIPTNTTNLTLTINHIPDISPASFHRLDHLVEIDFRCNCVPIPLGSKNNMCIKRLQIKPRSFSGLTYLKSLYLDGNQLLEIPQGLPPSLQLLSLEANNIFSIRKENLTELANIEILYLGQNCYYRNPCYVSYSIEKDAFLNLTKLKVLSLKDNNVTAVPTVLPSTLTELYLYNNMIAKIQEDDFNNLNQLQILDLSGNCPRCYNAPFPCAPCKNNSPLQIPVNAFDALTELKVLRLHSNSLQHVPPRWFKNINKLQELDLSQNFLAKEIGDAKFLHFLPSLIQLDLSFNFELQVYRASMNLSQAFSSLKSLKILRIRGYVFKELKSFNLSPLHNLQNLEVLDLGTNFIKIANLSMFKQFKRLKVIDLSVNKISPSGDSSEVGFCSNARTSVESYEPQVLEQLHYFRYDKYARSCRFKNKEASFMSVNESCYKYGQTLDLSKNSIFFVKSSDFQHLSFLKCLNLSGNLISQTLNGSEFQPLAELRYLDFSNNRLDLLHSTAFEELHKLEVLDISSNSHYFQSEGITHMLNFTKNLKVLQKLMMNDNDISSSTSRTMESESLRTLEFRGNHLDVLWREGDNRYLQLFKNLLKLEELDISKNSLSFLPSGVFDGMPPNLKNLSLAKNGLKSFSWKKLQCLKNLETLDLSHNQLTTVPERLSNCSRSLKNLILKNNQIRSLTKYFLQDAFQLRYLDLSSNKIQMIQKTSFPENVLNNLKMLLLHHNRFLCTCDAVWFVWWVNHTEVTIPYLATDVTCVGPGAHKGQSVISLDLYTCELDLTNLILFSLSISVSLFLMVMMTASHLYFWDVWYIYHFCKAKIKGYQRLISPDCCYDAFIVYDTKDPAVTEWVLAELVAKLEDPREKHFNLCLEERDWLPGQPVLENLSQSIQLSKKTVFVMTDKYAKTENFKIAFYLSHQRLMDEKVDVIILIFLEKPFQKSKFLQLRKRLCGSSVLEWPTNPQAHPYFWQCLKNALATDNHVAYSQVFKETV
# Description: (§1) HEK-Blue™ hTLR4, 7, 8 and 9 cell lines were purchased from InvivoGen (Hong Kong). The cells express the human TLR gene and NF-κB/AP-1-inducible SEAP (secreted embryonic alkaline phosphatase) reporter gene. SEAP levels produced upon TLR stimulation can be determined by QUANTI-Blue™. In the cell-based assay, the main reagents used were QUANTI-Blue™ (InvivoGen) and ATPlite 1 Step (Perkin Elmer). The main instruments used were the microplate reader SpectraMax 340PC (Molecular Device) and Envision (Perkin Elmer). Motolimod and DN052 were synthesized in house. […] The compounds were in 10 mM stock solution in DMSO and stored at − 20°C. The compounds were serially diluted in the concentration range from 0.5 nM to 15 μM (up to 50 μM in the hTLR4, hTLR7 and hTLR9 assays) and added to 96-well plates. DMSO was used as the negative control. LPS-EK, R848, motolimod and ODN2006 were used as the positive control for TLR4, 7, 8 and 9, respectively. The cells were cultured and treated with the compounds at 37°C, 5%CO2 for 24 h. […] After 1.5 h of incubation, the optical density was measured using the spectrophotometer at 650 nm in the microplate reader of SpectraMax 340PC. The cell viability of each well was determined using ATPlite 1 Step following the manufacturer’s instruction. The luminescence signal in each well of plates was measured in the microplate reader of Envision.
# hTLR4 = biological target: T2, hTLR4 (Homo sapiens, UniProt O00206+Q9Y6Y9); assay: HEK-Blue hTLR4 SEAP reporter agonist assay; details: HEK-Blue hTLR4 cells, highest concentration 50 μM
# T2 construct: host or cells: HEK-Blue hTLR4
# T2 sequence (O00206 24-839): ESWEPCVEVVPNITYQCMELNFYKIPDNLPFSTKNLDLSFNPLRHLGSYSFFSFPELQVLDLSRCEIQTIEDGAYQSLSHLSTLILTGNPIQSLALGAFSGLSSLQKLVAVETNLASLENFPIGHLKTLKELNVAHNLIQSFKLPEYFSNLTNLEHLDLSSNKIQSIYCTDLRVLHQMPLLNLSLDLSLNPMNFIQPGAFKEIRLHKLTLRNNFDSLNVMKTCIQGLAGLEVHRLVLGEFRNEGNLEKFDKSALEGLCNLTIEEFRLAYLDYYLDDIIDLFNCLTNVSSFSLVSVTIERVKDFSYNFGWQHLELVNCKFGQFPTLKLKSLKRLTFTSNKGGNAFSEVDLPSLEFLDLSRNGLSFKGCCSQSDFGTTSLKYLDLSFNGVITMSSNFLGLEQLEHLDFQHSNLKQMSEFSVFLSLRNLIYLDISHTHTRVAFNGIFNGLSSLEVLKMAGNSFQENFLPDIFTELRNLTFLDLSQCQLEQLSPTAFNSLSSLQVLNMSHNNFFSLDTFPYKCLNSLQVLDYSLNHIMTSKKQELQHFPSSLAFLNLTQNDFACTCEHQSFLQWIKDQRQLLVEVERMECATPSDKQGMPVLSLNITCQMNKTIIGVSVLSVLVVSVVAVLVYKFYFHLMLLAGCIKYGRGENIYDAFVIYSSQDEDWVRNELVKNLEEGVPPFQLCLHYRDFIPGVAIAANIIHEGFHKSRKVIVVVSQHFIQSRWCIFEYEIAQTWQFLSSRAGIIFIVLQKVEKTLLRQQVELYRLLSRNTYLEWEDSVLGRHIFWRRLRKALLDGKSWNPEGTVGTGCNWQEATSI
# T2 sequence (Q9Y6Y9 17-160 limits assumed): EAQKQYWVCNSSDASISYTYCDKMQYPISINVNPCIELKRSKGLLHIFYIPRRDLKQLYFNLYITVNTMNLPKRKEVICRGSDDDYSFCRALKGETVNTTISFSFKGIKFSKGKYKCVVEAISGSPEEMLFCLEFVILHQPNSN
# Description: as §1
# [1] = tested on: human peripheral blood mononuclear cells (PBMCs); assay: Ex vivo human PBMC cytokine induction assay; details: 24 h
# Protocol: Briefly, PBMCs were isolated from fresh human blood (Chempartner, Shanghai, China). 2 × 10^5/100 μL/well hPBMCs were plated on 96-well cell culture plates. Serial dilutions of compounds with concentration range from 2 nM to 30 μM were added in duplicate wells. LPS was included as a control. The plate was incubated in a 37°C, 5% CO2 incubator for 24 h. The supernatant was harvested for cytokine detection using MILLIPLEX MAP Human Cytokine/Chemokine Magnetic Bead Panel - Immunology Multiplex Assay (Millipore) following the manufacturer’s protocol. Cytokines including TNF-α, IFN-α2, IL-1α, IL-1β, IL-6, IL-8, IL-10, IL-12p40, IL-12p70, MIP-1α, MIP-1β, G-CSF and IFN-γ were measured.
structure (smiles),measurement,setting,value
"CCCN(CCC)C(=O)C1=Cc2ccc(-c3ccc(C(=O)N4CCCC4)cc3)cc2N=C(N)C1 [Motolimod, motolimod]",EC50,hTLR7,19.8 µM
same,EC50,hTLR4,> 50 µM
same,EC50,"[1]; Donor 1, 24 h, read-out: EC50 G-CSF induction",841 nM
same,EC50,"[1]; Donor 1, 24 h, read-out: EC50 IFN-α2 induction",1330 nM
same,EC50,"[1]; Donor 1, 24 h, read-out: EC50 IFN-γ induction",4160 nM
same,EC50,"[1]; Donor 1, 24 h, read-out: EC50 IL-1α induction",849 nM
same,EC50,"[1]; Donor 1, 24 h, read-out: EC50 IL-1β induction",665 nM
same,EC50,"[1]; Donor 1, 24 h, read-out: EC50 IL-6 induction",424 nM
same,EC50,"[1]; Donor 1, 24 h, read-out: EC50 IL-8 induction",504 nM
same,EC50,"[1]; Donor 1, 24 h, read-out: EC50 IL-10 induction",304 nM
same,EC50,"[1]; Donor 1, 24 h, read-out: EC50 IL-12(p40) induction",447 nM
same,EC50,"[1]; Donor 1, 24 h, read-out: EC50 IL-12(p70) induction",285 nM
same,EC50,"[1]; Donor 1, 24 h, read-out: EC50 MIP-1α induction",277 nM
same,EC50,"[1]; Donor 1, 24 h, read-out: EC50 MIP-1β induction",277 nM
same,EC50,"[1]; Donor 1, 24 h, read-out: EC50 TNF-α induction",321 nM
same,EC50,"[1]; Donor 2, 24 h, read-out: EC50 G-CSF induction",461 nM
same,EC50,"[1]; Donor 2, 24 h, read-out: EC50 IFN-α2 induction",344 nM
same,EC50,"[1]; Donor 2, 24 h, read-out: EC50 IFN-γ induction",1660 nM
same,EC50,"[1]; Donor 2, 24 h, read-out: EC50 IL-1α induction",348 nM
same,EC50,"[1]; Donor 2, 24 h, read-out: EC50 IL-1β induction",556 nM
same,EC50,"[1]; Donor 2, 24 h, read-out: EC50 IL-6 induction",439 nM
same,EC50,"[1]; Donor 2, 24 h, read-out: EC50 IL-8 induction",502 nM
same,EC50,"[1]; Donor 2, 24 h, read-out: EC50 IL-10 induction",191 nM
same,EC50,"[1]; Donor 2, 24 h, read-out: EC50 IL-12(p40) induction",344 nM
same,EC50,"[1]; Donor 2, 24 h, read-out: EC50 IL-12(p70) induction",> 30000 nM
same,EC50,"[1]; Donor 2, 24 h, read-out: EC50 MIP-1α induction",208 nM
same,EC50,"[1]; Donor 2, 24 h, read-out: EC50 MIP-1β induction",248 nM
same,EC50,"[1]; Donor 2, 24 h, read-out: EC50 TNF-α induction",317 nM
